In brackets after ≈: the same amount, converted by molar mass.
Columns and labels:
human GPR119 (hGPR119) = target: T1, human GPR119 (hGPR119) (Homo sapiens, UniProt Q8TDV5); test: Specific (agonistic) activity in vitro, cAMP increase (Lance Ultra cAMP kit) in CHO-K1 cells expressing hGPR119; assay type: cell-based; conditions: CHO-K1 hGPR119, cAMP
T1 construct: expressed in transfected cells; host or cells: CHO-K1 (Chinese hamster ovary)
T1 sequence (Q8TDV5 1-335): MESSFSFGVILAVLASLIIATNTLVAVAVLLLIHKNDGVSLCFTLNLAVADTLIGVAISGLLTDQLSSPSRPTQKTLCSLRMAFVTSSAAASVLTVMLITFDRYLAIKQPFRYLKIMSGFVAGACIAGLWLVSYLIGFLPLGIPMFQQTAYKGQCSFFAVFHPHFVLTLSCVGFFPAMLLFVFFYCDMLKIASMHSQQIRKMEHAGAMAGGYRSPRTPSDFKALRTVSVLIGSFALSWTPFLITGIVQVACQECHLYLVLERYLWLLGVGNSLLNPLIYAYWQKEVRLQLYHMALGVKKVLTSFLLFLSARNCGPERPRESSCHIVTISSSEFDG
Method: Specific activity was evaluated using an immortalized Chinese hamster ovary cell line CHO-K1 steadily expressed human GPR119 (hGPR119). The cells (10^7 ml^−1) were cultured in Dulbecco's modified Eagle medium (DMEM) modified with 10% fetal bovine serum (FBS), revolved continuously at 50 rpm at 37°C in 8% CO2 for 3–4 days. Lance Ultra cAMP kit (Perkin Elmer, Waltham, MA, USA) was chosen as the experimental platform ([13]). The experiments were performed in accordance to the manufacturer's instructions. The agonistic activity of the test compounds was estimated by the increase in intracellular cAMP concentration, assuming the hGPR119 activation is followed by the activation of cellular adenylate cyclase, which increases intracellular cAMP levels ([4], [14]). Known agonists of hGPR119 receptors were used as positive controls to determine the maximal possible effect (MPE). The activity of test compounds was expressed in terms of median effective concentration (EC50).

physchem = conditions: kinetic from dmso stock
[1] = Biotransformation in vitro, microsomal stability (rat); assay type: in vitro ADME; conditions: for ER / CLh: Rat microsomal fraction; for CLh: in mL/min/kg (unit assumed); for microsomal CLint at 0.5 μM / half-life at 0.5 μM: liver microsomal fraction; for half-life at 0.5 μM: NADPH, read-out: t1/2, min
Method: (§1) The metabolism of the compounds was studied in commercially available microsomal fractions derived from human and rat hepatocytes. Test compounds (0.5 μM) were incubated with microsomal fractions in the presence of NADPH during 30 min in a shaker at 37°C. Reactions were stopped at 0, 5, 10, 15, and 30 min by adding acetonitrile. After proteins precipitation, the remaining amount of the test compound in the supernatant was detected with high performance liquid chromatography tandem-mass spectrometry (HPLC-MS/MS) method using Agilent 1260 liquid chromatograph (Agilent Technologies, Santa Clara, CA, USA) and a QTRAP6500 triple quadrupole mass spectrometer with a TurboIonSpray electro-spraying module (ABSciex, Foster City, CA, USA) ([15]). Incubation was performed twice, with at least 2 measurements for each replicate (n ≥ 3). The half-life (T1/2), the clearance in vitro (CLint) and the remaining amount of substance (% of initial quantity) were calculated.

[2] = Biotransformation in vitro, microsomal stability (mouse); assay type: in vitro ADME
Method: as §1

[3] = Biotransformation in vitro, microsomal stability (human); assay type: in vitro ADME; conditions: for ER / CLh: Human microsomal fraction; for CLh: in mL/min/kg (unit assumed); for microsomal CLint at 0.5 μM / half-life at 0.5 μM: liver microsomal fraction; for half-life at 0.5 μM: NADPH, read-out: t1/2, min
Method: as §1

CYP2D6 = target: T2, CYP2D6 (Homo sapiens, UniProt P10635); test: CYP inhibition, Vivid CYP450 Screening Kit; assay type: in vitro ADME; conditions: 0.0046 to 10 μM tested
T2 construct: purchased Invitrogen Corporation, Carlsbad, CA, USA
T2 sequence (P10635 whole entry): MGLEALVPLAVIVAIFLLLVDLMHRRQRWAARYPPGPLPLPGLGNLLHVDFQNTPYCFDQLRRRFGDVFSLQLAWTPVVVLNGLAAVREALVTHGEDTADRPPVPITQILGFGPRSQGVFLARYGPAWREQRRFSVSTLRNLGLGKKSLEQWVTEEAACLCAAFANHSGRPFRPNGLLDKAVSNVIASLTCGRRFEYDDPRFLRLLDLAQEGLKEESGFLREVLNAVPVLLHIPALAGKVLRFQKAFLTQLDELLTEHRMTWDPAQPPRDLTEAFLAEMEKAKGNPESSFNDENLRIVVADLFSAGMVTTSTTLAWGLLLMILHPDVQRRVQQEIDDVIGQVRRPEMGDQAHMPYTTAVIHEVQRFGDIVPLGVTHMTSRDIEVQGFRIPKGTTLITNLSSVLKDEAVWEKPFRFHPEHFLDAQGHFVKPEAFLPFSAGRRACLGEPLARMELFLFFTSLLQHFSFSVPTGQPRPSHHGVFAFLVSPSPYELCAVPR
Method: (§2) Briefly, the reaction was initiated by adding NADP^+ and a substrate converted to fluorescent derivates by specific CYP isozyme. The reaction was terminated by adding 1M Tris. The fluorescence of the reaction product, which was proportional to CYP isozyme activity, was measured. […] The minimal signal was defined as the signal obtained without enzyme incubation. The inhibitory action of test compounds on the CYP isozymes was expressed in terms of median inhibitory concentration (IC50).

CYP2C19 = target: T3, CYP2C19 (Homo sapiens, UniProt P33261); test: CYP inhibition, Vivid CYP450 Screening Kit; assay type: in vitro ADME; conditions: 0.0046 to 10 μM tested
T3 construct: purchased Invitrogen Corporation, Carlsbad, CA, USA
T3 sequence (P33261 whole entry): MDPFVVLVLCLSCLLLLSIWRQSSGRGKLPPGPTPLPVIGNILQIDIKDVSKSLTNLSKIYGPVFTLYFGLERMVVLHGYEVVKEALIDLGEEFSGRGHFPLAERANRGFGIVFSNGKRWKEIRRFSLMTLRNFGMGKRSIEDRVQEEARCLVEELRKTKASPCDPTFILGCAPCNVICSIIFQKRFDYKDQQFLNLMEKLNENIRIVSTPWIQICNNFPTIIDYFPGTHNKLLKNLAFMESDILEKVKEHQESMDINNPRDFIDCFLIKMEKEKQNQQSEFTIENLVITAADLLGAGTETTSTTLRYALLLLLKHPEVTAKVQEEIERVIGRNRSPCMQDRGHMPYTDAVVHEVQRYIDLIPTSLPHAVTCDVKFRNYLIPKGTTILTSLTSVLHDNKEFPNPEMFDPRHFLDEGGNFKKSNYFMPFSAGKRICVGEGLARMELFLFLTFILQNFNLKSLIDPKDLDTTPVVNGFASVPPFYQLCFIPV
Method: as §2

CYP2C9 = target: T4, CYP2C9 (Homo sapiens, UniProt P11712); test: CYP inhibition, Vivid CYP450 Screening Kit; assay type: in vitro ADME; conditions: 0.0046 to 10 μM tested
T4 construct: purchased Invitrogen Corporation, Carlsbad, CA, USA
T4 sequence (P11712 whole entry): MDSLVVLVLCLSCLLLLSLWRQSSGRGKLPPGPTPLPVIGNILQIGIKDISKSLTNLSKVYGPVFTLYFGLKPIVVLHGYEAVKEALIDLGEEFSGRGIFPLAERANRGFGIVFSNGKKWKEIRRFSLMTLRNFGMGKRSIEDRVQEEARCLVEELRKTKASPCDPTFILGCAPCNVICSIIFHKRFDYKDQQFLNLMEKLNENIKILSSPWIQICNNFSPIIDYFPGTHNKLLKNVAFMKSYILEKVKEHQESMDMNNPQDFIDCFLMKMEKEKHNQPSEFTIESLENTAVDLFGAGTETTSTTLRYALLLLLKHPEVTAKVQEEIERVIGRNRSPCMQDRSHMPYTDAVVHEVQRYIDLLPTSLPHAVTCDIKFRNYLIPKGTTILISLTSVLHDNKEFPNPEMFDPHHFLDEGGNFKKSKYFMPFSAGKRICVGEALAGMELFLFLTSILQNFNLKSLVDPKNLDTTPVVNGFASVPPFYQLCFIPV
Method: as §2

CYP3A4 = target: T5, CYP3A4 (Homo sapiens, UniProt P08684); test: CYP inhibition, Vivid CYP450 Screening Kit; assay type: in vitro ADME; conditions: 0.0046 to 10 μM tested
T5 construct: purchased Invitrogen Corporation, Carlsbad, CA, USA
T5 sequence (P08684 whole entry): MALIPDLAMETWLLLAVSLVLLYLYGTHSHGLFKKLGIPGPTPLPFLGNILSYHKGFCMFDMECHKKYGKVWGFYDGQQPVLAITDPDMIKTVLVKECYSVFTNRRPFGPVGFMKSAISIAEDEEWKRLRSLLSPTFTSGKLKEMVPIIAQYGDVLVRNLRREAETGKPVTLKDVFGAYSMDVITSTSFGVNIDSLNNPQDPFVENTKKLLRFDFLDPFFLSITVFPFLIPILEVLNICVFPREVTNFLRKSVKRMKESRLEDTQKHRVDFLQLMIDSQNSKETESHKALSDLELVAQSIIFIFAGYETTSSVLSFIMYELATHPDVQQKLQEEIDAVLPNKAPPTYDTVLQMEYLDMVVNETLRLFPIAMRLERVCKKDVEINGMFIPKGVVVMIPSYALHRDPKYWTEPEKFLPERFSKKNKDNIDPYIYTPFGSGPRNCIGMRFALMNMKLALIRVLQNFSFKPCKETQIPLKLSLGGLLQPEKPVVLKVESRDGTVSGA
Method: as §2

CYP1A2 = target: T6, CYP1A2 (Homo sapiens, UniProt P05177); test: CYP inhibition, Vivid CYP450 Screening Kit; assay type: in vitro ADME; conditions: 0.0046 to 10 μM tested
T6 construct: purchased Invitrogen Corporation, Carlsbad, CA, USA
T6 sequence (P05177 1-516): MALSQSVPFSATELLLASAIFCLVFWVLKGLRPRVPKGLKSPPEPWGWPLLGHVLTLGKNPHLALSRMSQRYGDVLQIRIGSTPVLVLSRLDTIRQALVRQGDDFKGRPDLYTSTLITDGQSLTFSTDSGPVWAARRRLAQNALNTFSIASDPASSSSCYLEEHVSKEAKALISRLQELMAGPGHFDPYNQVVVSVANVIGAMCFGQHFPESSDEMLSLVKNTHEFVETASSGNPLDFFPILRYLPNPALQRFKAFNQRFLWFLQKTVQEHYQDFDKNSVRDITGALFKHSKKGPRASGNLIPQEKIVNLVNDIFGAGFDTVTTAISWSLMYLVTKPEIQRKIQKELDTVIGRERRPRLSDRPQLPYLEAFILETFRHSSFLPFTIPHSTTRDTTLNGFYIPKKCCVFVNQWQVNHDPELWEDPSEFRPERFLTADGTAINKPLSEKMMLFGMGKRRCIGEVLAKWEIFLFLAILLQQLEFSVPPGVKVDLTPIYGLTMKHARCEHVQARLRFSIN
Method: as §2

hERG potassium channels = target: T7, hERG potassium channels (Homo sapiens, UniProt Q12809); test: Cardiac toxicity, Predictor hERG fluorescence polarization binding
T7 construct: purchased Invitrogen Corporation, Carlsbad, CA, USA
T7 sequence (Q12809 whole entry): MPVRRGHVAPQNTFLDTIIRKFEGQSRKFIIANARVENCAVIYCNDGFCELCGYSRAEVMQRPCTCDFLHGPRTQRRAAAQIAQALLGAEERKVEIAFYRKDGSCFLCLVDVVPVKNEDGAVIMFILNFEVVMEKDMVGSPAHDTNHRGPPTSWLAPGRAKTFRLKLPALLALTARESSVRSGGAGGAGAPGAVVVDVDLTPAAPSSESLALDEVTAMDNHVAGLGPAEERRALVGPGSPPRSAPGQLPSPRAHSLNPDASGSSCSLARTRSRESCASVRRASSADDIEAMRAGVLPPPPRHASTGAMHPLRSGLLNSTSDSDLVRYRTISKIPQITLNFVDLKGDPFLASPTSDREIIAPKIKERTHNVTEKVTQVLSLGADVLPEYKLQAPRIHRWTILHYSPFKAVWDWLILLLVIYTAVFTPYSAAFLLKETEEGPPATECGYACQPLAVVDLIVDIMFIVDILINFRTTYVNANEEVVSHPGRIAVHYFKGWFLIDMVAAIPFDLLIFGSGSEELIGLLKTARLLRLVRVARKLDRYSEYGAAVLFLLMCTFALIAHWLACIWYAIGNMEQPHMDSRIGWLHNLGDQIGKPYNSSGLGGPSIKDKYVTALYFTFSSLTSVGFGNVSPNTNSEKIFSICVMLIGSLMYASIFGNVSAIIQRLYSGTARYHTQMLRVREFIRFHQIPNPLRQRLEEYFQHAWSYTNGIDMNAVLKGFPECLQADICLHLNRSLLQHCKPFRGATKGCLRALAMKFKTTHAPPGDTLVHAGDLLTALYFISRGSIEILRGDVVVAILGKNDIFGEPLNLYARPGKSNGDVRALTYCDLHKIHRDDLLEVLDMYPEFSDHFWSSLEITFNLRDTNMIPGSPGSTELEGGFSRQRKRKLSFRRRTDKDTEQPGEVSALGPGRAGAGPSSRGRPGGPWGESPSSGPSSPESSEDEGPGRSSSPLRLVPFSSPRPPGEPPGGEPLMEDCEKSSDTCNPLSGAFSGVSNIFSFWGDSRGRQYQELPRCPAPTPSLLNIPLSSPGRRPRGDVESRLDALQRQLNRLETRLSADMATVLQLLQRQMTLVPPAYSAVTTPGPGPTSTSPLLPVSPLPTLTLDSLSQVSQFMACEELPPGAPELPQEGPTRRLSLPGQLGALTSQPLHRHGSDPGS
Method: Cardiac toxicity was evaluated by estimating the influence of each substance on hERG potassium channels using the in vitro test system Invitrogen® PredictorTM hERG (Invitrogen Corporation, Carlsbad, CA, USA), containing Predictor hERG membrane preparations, fluorescent tracer stock solution and an assay buffer solution. Experimental procedures were conducted in accordance with the PredictorTM hERG test system's manufacturer instructions. Assays were performed in 384-well microplates. Each well contained 5 μL aliquot of each concentration of test compound, 10 μL of (2X) membrane preparation and 5 μL of working tracer solution. The cumulative reaction volume was 20 μl with 1% of DMSO ([19]). All procedures were performed at 4 replicates for each concentration. The plate was allowed to incubate at room temperature for at least 1 h prior to fluorescence polarization measurements performed with a microplate reader Infinite M1000 PRO (Tecan).

[4] = system: rats with streptozotocin-nicotinamide (STZ-NA) induced T2D; test: Hypoglycemic activity after continuous (28 days) oral administration in T2D rat model, OGTT; assay type: in vivo; conditions: daily oral ZB-16 1 mg/kg or sitagliptin 10 mg/kg for 28 days, STZ-NA T2D
Method: Procedures were performed in 40 female Wistar rats weighing 250–280 g. Streptozotocin-nicotinamide-induced rat model of T2D was used ([24], [25]). Briefly, streptozotocin (Sigma, St. Louis, MO, USA) was administered i.p. to overnight fasted rats (65 mg/kg in 100 mmol/l citrate buffer, Ph 4.5). Nicotinamide (Sigma, St. Louis, MO, USA) (230 mg/kg) dissolved in saline was administered i.p. 15 min before streptozotocin. STZ-NA T2D had been confirmed 72 h after in rats with blood glucose levels in a range 9–14 mmol/l measured in fasting (6 h) conditions. […] Following the continuous oral administration of sitagliptin (10 mg/kg), ZB-16 (1 mg/kg) or saline during 28 days STZ-NA T2D confirmation the fasting blood glucose levels were measured, and oral glucose tolerance test (OGTT) was performed. For OGTT rats received an oral dose of […] glucose dissolved in saline; blood glucose levels were monitored every 30 min for 2 h after glucose administration. Sitagliptin dose was chosen in accordance with published data ([26]).

[5] = Britton-Robinson universal buffer, pH 2, aqueous buffer
[6] = Britton-Robinson universal buffer, pH 4, aqueous buffer
[7] = Britton-Robinson universal buffer, pH 7, aqueous buffer

EC50 (human GPR119 (hGPR119)) | ER [1] | CLh [1] | microsomal CLint at 0.5 μM [1] | half-life at 0.5 μM [1] | ER [3] | CLh [3] | microsomal CLint at 0.5 μM [3] | half-life at 0.5 μM [3] | solubility (physchem; [5]) | solubility (physchem; [6]) | solubility (physchem; [7]) | Structure (SMILES) | also measured
 | 0.74 | 40.97 | 89.2 µL/min/mg | 31.1 min | 0.94 | 20.44 | 666 µL/min/mg | 4.16 min | < 3 µM | < 3 µM | < 3 µM | CC(C)(C)OC(=O)N1CCC(COc2ccc(-c3ccc4c(c3)OCS4(=O)=O)cc2F)CC1 [ZB-09] | CLh ([2]; Mouse microsomal fraction): 84.06; ER ([2]; Mouse microsomal fraction): 0.93; microsomal CLint at 0.5 μM ([2]; liver microsomal fraction): 324 µL/min/mg; half-life at 0.5 μM ([2]; liver microsomal fraction, read-out: t1/2, min): 8.57 min; EC50 (human GPR119 (hGPR119); values of the text): 4 nM
12.5 nM |  |  |  |  |  |  |  |  | < 3 µM | < 3 µM | < 3 µM | CC(C)OC(=O)N1CCC(COc2ccc(-c3ccc4c(c3)OCS4(=O)=O)cc2F)CC1 [ZB-17] | 
63.5 nM |  |  |  |  |  |  |  |  | 25 µM (≈ 11.5 µg/mL) | < 3 µM | < 3 µM | O=S1(=O)COc2cc(-c3ccc(OCC4CCN(CC(F)(F)F)CC4)c(F)c3)ccc21 [ZB-18] | 
11 nM | 0.81 | 44.29 | 126 µL/min/mg | 21.9 min | 0.95 | 20.66 | 1110 µL/min/mg | 2.5 min | < 3 µM | < 3 µM | < 3 µM | CC(C)(C)OC(=O)N1CCC(COc2ccc(-c3ccc4c(c3)OCS4(=O)=O)cn2)CC1 [ZB-19] | 
29.3 nM | 0.41 | 22.53 | 21.2 µL/min/mg | 131 min | 0.76 | 16.57 | 68 µL/min/mg | 40.8 min | < 3 µM | < 3 µM | < 3 µM | O=S1(=O)COc2cc(-c3ccc(OCC4CCN(c5ncc(Cl)cn5)CC4)nc3)ccc21 [ZB-20] | IC50 (CYP2D6): > 10000 nM; IC50 (CYP2C19): > 10000 nM; IC50 (CYP2C9): > 10000 nM; IC50 (CYP3A4): > 10000 nM; IC50 (CYP1A2): > 10000 nM; Average polarization mP (n = 4) (hERG potassium channels; 1 μM): 261 mP; Unbound hERG % (hERG potassium channels; 1 μM): 89%; Average polarization mP (n = 4) (hERG potassium channels; 10 μM): 263 mP; Unbound hERG % (hERG potassium channels; 10 μM): 91%; EC50 (human GPR119 (hGPR119); values of the text): 29 nM

More lines, now with the values behind:

Structure (SMILES) | EC50 (human GPR119 (hGPR119)) | ER [1] | CLh [1] | microsomal CLint at 0.5 μM [1] | half-life at 0.5 μM [1] | ER [3] | CLh [3] | microsomal CLint at 0.5 μM [3] | half-life at 0.5 μM [3] | solubility (physchem; [5]) | solubility (physchem; [6]) | solubility (physchem; [7]) | also measured
CCN1C(=O)c2ccccc2S(=O)(=O)c2ccc(C(=O)NCCc3ccc(Cl)cc3)cc21 [C530-0315] | 71.3 nM |  |  |  |  |  |  |  |  |  |  |  | 
CCN1C(=O)c2ccccc2S(=O)(=O)c2ccc(C(=O)NCc3ccc(F)cc3)cc21 [C530-0339] | 10700 nM |  |  |  |  |  |  |  |  |  |  |  | 
CC/C(=C(/CC)c1ccc(O)cc1)c1ccc(O)cc1 [Diethylstilbestrol, reference compound] |  |  |  |  |  |  |  |  |  |  |  |  | Solubility (μM) UB, 2% DMSO pH 2 (pH 2): 15 μM; Solubility (μM) UB, 2% DMSO pH 4 (pH 4): 14 μM; Solubility (μM) UB, 2% DMSO pH 7 (pH 7): 14 μM; solubility (physchem; pH 2, aqueous buffer): 12 µM (≈ 3.22 µg/mL); solubility (physchem; pH 4, aqueous buffer): 10 µM (≈ 2.68 µg/mL); solubility (physchem; pH 7, aqueous buffer): 12 µM (≈ 3.22 µg/mL)
N[C@@H](CC(=O)N1CCn2c(nnc2C(F)(F)F)C1)Cc1cc(F)c(F)cc1F [sitagliptin, reference compound] |  |  |  |  |  |  |  |  |  |  |  |  | blood glucose levels [4]: reduction

Reference: publication PMC6156125, “Chemistry and Hypoglycemic Activity of GPR119 Agonist ZB-16” (Frontiers in Endocrinology, 2018)
